Test system: TDP-43 aggregation
Experiment: TDP-43 aggregation assay in SY5Y TDP-43WT cells (high content imaging)
Format: cell-based
Settings: Homo sapiens, tetracycline induction 24 hrs, 1 hour compound pre-treatment, sodium arsenite 23 hrs, 8-point dose curve, percentage of cells with TDP-43 aggregates, read-out: IC50, Inhibition of TDP-43 Aggregation
Procedure, shortened: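 Tetracycline-inducible eGFP-tagged wild-type human TDP-43 in SH-SY5Y cells, induced 24 h ([…]), compound pre-treated 1 h, then sodium arsenite […] for 23 h. Fixed cells imaged; percentage of DAPI-counted cells with aggregates gives IC50 from 8-point curves.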

IC50, < 500 nM:
Cc1cc(-c2ccc(C3CCN(C)CC3)c(F)c2)sc1C(=O)N1CC[C@H](N)C1 [Compound 136, (S)-(3-aminopyrrolidin-1-yl)(5-(3-fluoro-4-(1-methylpiperidin-4-yl)phenyl)-3-methylthiophen-2-yl)methanone]
Cc1cc(-c2ccc(C3CCN(CC4CCCOC4)CC3)cc2)sc1C(=O)N1CC[C@H](N)C1 (stereo partly drawn) [Compound 139, ((S)-3-aminopyrrolidin-1-yl)(3-methyl-5-(4-(1-((tetrahydro-2H-pyran-3-yl)methyl)piperidin-4-yl)phenyl)thiophen-2-yl)methanone]
COCCCN1CCC(c2ccc(-c3cc(C)c(C(=O)N4CC[C@H](N)C4)s3)cc2)CC1 [Compound 141, (S)-(3-aminopyrrolidin-1-yl)(5-(4-(1-(3-methoxypropyl)piperidin-4-yl)phenyl)-3-methylthiophen-2-yl)methanone]

Test system: tau stress granules
Experiment: SY5Y-tT1 tau arsenite assay (tau stress granules per cell)
Format: cell-based
Settings: SY5Y-tT1 cells, 2 hours compound, 90 minutes arsenite, 50% reduction of granules per cell, read-out: IC50, Inhibitor Activity of Tau Stress Granules
Method: Example 91: In Vitro Efficacy Assay of Exemplary Compounds—SY5Y-tT1 Tau Arsenite/Thapsigargin Assay
• Before harvesting cells—checked to see if cells are ~80% confluency in their flask • 1. Aspirated growth media from flask. • 2. Added 4 mL of (0.25%) trypsin-EDTA (REF: 25200-056) • 3. Placed in 37° C. incubator for 5 minutes. • 4. Removed from incubator and added 11 mL growth media, washing any remaining cells adhered to the bottom of the flask. • 5. Transferred cell containing media to a 50 mL conical tube and spun for 5 minutes at 800 rpm. • 6. Aspirated supernatant and added 5 mL of growth media to cell pellet, triturating to make a homogenous cell solution. • 7. After counting cells, followed one of these plating paradigms: • (A) If treating with arsenite, plated cells at […] with tetracycline solution (5 mg/mL) added to cell solution at 1:5000 • (B) If treating with thapsigargin, plated cells at 4,000 cells/well with tetracycline solution (5 mg/mL) added to cell solution at 1:5000 • 8. Incubated at 37° C. for 48 hours.
• Solubilized all compounds to 10 mM prior to making dilution plates • 1. To a 96-well U-bottom plate (Falcon Non-Tissue Culture Treated Plates REF: 351177) added 120 μL growth media to all 96 wells, with an additional 58.2 μL to row A. • 2. Added 1.8 μL of 10 mM compound stock to wells A1-11, adding 1.8 μL of 10 mM PERKi stock (Selleck Chemistry GSK2606414 Cat No. S7307) as the control. • 3. Serially diluted 60 μL from row A down through each row, finishing with 180 μL total volume in row H. • 4. Transferred 12.5 μL of each dilution plate well to the correlating wells in cell plate, being careful not to touch cells adhered to bottom of the plate. • 5. Incubated for 2 hours.
• 1. Added 720 μL of 0.05 M sodium arsenite solution (CAS #: 7784-46-5) to 10 mL of growth media for a final concentration of […] arsenite solution, mix well. • 2. Added 12.5 μL of arsenite solution to all wells of compounds treated plate intended for arsenite treatment. • 3. Incubated at 37° C. for 90 minutes.
• Before beginning this part of the protocol: • Made 1×PBS by diluting 10× stock (10×, Phosphate buffered saline, Fisher #BP399— • 4) in sterile deionized water. • Diluted paraformaldehyde (16% Paraformaldehyde solution, Electron Microscopy Sciences #15710-S) to 4% in 1×PBS. • Diluted Hoechst stain (Life Technologies #H3570) 1:10,000 in 1×PBS (1 μL Hoechst per 10 mL 1×PBS). • Both solutions were protected from light. • 1) After compound treatment, aspirated media from cell plates and gently added in 50 μL of 4% paraformaldehyde for 10 min protected from light at room temperature. • 2) Aspirated paraformaldehyde solution and gently added 50 μL of 1:10,000 Hoechst solution to each well and incubated for 10 min protected from light at room temperature. • 3) Aspirated Hoechst solution and gently added 100 μL 1×PBS. Cover the plate with aluminum film (VWR #60941-126). • 4) Stored at 4° C. or used immediately for imaging on ThermoFisher CX7 imager.
Exemplary compounds of the disclosed herein were evaluated for efficacy for inhibitor activity of tau stress granules in the arsenite assay and quantified as drug concentration providing a 50% reduction (IC50) of granules per cell is shown in Table 4.
In Table 4 below, A indicates an IC50 (μM)<0.5 μM, B indicates an IC50 (μM) 0.5 μM to <1 μM, C indicates an IC50 (μM) 1 μM to <2 μM, and D indicates an IC50 (μM) 2 μM to <6 μM.

IC50, 2000 to 6000 nM:
Cc1cc(-c2ccc(C3CCNCC3)cc2F)sc1C(=O)N1CC[C@H](N)C1 [Compound 129, (S)-(3-aminopyrrolidin-1-yl)(5-(2-fluoro-4-(piperidin-4-yl)phenyl)-3-methylthiophen-2-yl)methanone]
Cc1cc(C2CCN(C)CC2)ccc1-c1cc(C)c(C(=O)N2CC[C@H](N)C2)s1 [Compound 134, (S)-(3-aminopyrrolidin-1-yl)(3-methyl-5-(2-methyl-4-(1-methylpiperidin-4-yl)phenyl)thiophen-2-yl)methanone]
Cc1cc(-c2ccc(C3CCN(C)CC3)c(Cl)c2)sc1C(=O)N1CC[C@H](N)C1 [Compound 135, (S)-(3-aminopyrrolidin-1-yl)(5-(3-chloro-4-(1-methylpiperidin-4-yl)phenyl)-3-methylthiophen-2-yl)methanone]
Cc1cc(-c2cc(C)c(C(=O)N3CC[C@H](N)C3)s2)ccc1C1CCN(C)CC1 [Compound 144, (S)-(3-aminopyrrolidin-1-yl)(3-methyl-5-(3-methyl-4-(1-methylpiperidin-4-yl)phenyl)thiophen-2-yl)methanone]
Cc1cc(-c2ccc(N3CCN(C4CCOCC4)CC3)cc2)sc1C(=O)N1CC[C@H](N)C1 [Compound 151, (S)-(3-aminopyrrolidin-1-yl)(3-methyl-5-(4-(4-(tetrahydro-2H-pyran-4-yl)piperazin-1-yl)phenyl)thiophen-2-yl)methanone]

IC50, 1000 to 2000 nM:
Cc1cc(-c2ccc(C3CCN(C)CC3)cc2F)sc1C(=O)N1CC[C@H](N)C1 [Compound 128, (S)-(3-aminopyrrolidin-1-yl)(5-(2-fluoro-4-(1-methylpiperidin-4-yl)phenyl)-3-methylthiophen-2-yl)methanone]
Cc1cc(-c2ccc(N3CCN(C4CCCCC4)CC3)cc2)sc1C(=O)N1CC[C@H](N)C1 [Compound 148, (S)-(3-aminopyrrolidin-1-yl)(5-(4-(4-cyclohexylpiperazin-1-yl)phenyl)-3-methylthiophen-2-yl)methanone]
Cc1cc(-c2ccc(N3CCN(C4CCOC4)CC3)cc2)sc1C(=O)N1CC[C@H](N)C1 (stereo partly drawn) [Compound 152, ((S)-3-aminopyrrolidin-1-yl)(3-methyl-5-(4-(4-(tetrahydrofuran-3-yl)piperazin-1-yl)phenyl)thiophen-2-yl)methanone]
Cc1cc(-c2ccc(N3CCN(C4CCCC4)CC3)cc2)sc1C(=O)N1CC[C@H](N)C1 [Compound 153, (S)-(3-aminopyrrolidin-1-yl)(5-(4-(4-cyclopentylpiperazin-1-yl)phenyl)-3-methylthiophen-2-yl)methanone]
Cc1cc(-c2ccc(N3CCN(C4CCC4)CC3)cc2)sc1C(=O)N1CC[C@H](N)C1 [Compound 158, (S)-(3-aminopyrrolidin-1-yl)(5-(4-(4-cyclobutylpiperazin-1-yl)phenyl)-3-methylthiophen-2-yl)methanone]
Cc1cc(-c2ccc(N3CCNCC3)cc2)sc1C(=O)N1CC[C@H](N)C1 [Compound 162, (S)-(3-aminopyrrolidin-1-yl)(3-methyl-5-(4-(piperazin-1-yl)phenyl)thiophen-2-yl)methanone]
Cc1cc(-c2ccc(C3CCN(C4CCSCC4)CC3)cc2)sc1C(=O)N1CC[C@H](N)C1 [Compound 167, (S)-(3-aminopyrrolidin-1-yl)(3-methyl-5-(4-(1-(tetrahydro-2H-thiopyran-4-yl)piperidin-4-yl)phenyl)thiophen-2-yl)methanone]
Cc1cc(-c2ccc(CN(C)C)cc2)sc1C(=O)N1CC[C@H](N)C1 [Compound 217, (S)-(3-aminopyrrolidin-1-yl)(5-(4-((dimethylamino)methyl)phenyl)-3-methylthiophen-2-yl)methanone]

IC50, 500 to 1000 nM:
Cc1cc(-c2ccc(C3CCN(CC4CCCOC4)CC3)cc2)sc1C(=O)N1CC[C@H](N)C1 (stereo partly drawn) [Compound 139, ((S)-3-aminopyrrolidin-1-yl)(3-methyl-5-(4-(1-((tetrahydro-2H-pyran-3-yl)methyl)piperidin-4-yl)phenyl)thiophen-2-yl)methanone]
Cc1cc(-c2ccc(C3CCNCC3)c(F)c2)sc1C(=O)N1CC[C@H](N)C1 [Compound 140, (S)-(3-aminopyrrolidin-1-yl)(5-(3-fluoro-4-(piperidin-4-yl)phenyl)-3-methylthiophen-2-yl)methanone]
COCCCN1CCC(c2ccc(-c3cc(C)c(C(=O)N4CC[C@H](N)C4)s3)cc2)CC1 [Compound 141, (S)-(3-aminopyrrolidin-1-yl)(5-(4-(1-(3-methoxypropyl)piperidin-4-yl)phenyl)-3-methylthiophen-2-yl)methanone]
Cc1cc(-c2ccc(N3CCN(C(C)C)CC3)cc2)sc1C(=O)N1CC[C@H](N)C1 [Compound 159, (S)-(3-aminopyrrolidin-1-yl)(5-(4-(4-isopropylpiperazin-1-yl)phenyl)-3-methylthiophen-2-yl)methanone]
Cc1cc(-c2ccc3c(c2)CCOC3)sc1C(=O)N1CC[C@H](N)C1 [Compound 165, (S)-(3-aminopyrrolidin-1-yl)(5-(isochroman-6-yl)-3-methylthiophen-2-yl)methanone]

IC50, < 500 nM:
Cc1cc(-c2cnc(C3CCN(C)CC3)nc2)sc1C(=O)N1CC[C@H](N)C1 [Compound 124, (S)-(3-aminopyrrolidin-1-yl)(3-methyl-5-(2-(1-methylpiperidin-4-yl)pyrimidin-5-yl)thiophen-2-yl)methanone]
Cc1cc(-c2ccc(C3CCN(C)CC3)c(F)c2)sc1C(=O)N1CC[C@H](N)C1 [Compound 136, (S)-(3-aminopyrrolidin-1-yl)(5-(3-fluoro-4-(1-methylpiperidin-4-yl)phenyl)-3-methylthiophen-2-yl)methanone]
Cc1cc(-c2ccc(C3CCN(CC4CCOCC4)CC3)cc2)sc1C(=O)N1CC[C@H](N)C1 [Compound 147, (S)-(3-aminopyrrolidin-1-yl)(3-methyl-5-(4-(1-((tetrahydro-2H-pyran-4-yl)methyl)piperidin-4-yl)phenyl)thiophen-2-yl)methanone]
Cc1cc(-c2cc(C)c(C(=O)N3CC[C@H](N)C3)s2)ccc1C1CCNCC1 [Compound 149, (S)-(3-aminopyrrolidin-1-yl)(3-methyl-5-(3-methyl-4-(piperidin-4-yl)phenyl)thiophen-2-yl)methanone]
Cc1cc(-c2ccc(C3CCN(C4COC4)CC3)cc2)sc1C(=O)N1CC[C@H](N)C1 [Compound 164, (S)-(3-aminopyrrolidin-1-yl)(3-methyl-5-(4-(1-(oxetan-3-yl)piperidin-4-yl)phenyl)thiophen-2-yl)methanone]
Cc1cc(-c2ccc(C3(N(C)C)CCOCC3)cc2)sc1C(=O)N1CC[C@H](N)C1 [Compound 166, (S)-(3-aminopyrrolidin-1-yl)(5-(4-(4-(dimethylamino)tetrahydro-2H-pyran-4-yl)phenyl)-3-methylthiophen-2-yl)methanone]

— US20260258025A1, “INHIBITORS OF TDP-43 AND TAU AGGREGATION” (Aquinnah Pharmaceuticals, inc., priority 2023, published 2026)
